Laboratory results from patent US10780090B2, “Heteroaryl compounds useful as inhibitors of SUMO activating enzyme” (Millennium Pharmaceuticals, Inc., priority 2014, dated 2020).
Where two headings read alike, the source gives them in different places.

Target: recombinant human SAE enzyme (Homo sapiens (Human), UniProt Q9UBT2)
Test: SAE HTRF enzyme assay
Format: biochemical
Conditions: for inhibition at 0.111 µM: read-out: Percent Inhibition
Procedure, shortened: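 Human SAE (0.11 nM) with 0.5 μM ATP, 0.125 μM Sumo-Flag and 0.01 μM Ubc9-GST in HEPES pH 7.5, 5 mM MgCl2, 250 μM GSH; 105 min at 24 °C. Stopped with EDTA; HTRF read after 2 h with Eu-anti-Flag and APC-anti-GST. Percent inhibition or IC50 reported.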

[1] = SAE inhibition, class symbols, legend in nM
[2] = SAE inhibition at compound concentration 0.111 μM

Sequence of recombinant human SAE enzyme (Q9UBT2 whole entry): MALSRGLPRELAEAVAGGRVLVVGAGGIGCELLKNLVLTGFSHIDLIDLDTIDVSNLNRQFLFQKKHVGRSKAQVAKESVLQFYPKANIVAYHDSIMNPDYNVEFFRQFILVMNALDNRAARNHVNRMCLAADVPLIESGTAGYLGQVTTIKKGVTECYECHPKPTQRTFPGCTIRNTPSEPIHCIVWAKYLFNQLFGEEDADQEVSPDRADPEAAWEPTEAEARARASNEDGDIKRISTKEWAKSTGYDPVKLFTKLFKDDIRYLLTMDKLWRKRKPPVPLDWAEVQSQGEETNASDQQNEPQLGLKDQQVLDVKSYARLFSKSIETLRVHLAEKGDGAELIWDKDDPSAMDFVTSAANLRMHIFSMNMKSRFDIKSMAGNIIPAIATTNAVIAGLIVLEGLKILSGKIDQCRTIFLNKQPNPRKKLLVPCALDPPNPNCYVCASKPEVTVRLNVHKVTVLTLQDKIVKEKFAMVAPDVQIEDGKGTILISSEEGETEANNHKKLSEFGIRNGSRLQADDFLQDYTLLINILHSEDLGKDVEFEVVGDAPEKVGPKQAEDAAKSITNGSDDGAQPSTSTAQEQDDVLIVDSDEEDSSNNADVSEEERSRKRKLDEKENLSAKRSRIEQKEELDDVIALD
Sequence of recombinant human SAE enzyme (Q9UBE0 whole entry partner): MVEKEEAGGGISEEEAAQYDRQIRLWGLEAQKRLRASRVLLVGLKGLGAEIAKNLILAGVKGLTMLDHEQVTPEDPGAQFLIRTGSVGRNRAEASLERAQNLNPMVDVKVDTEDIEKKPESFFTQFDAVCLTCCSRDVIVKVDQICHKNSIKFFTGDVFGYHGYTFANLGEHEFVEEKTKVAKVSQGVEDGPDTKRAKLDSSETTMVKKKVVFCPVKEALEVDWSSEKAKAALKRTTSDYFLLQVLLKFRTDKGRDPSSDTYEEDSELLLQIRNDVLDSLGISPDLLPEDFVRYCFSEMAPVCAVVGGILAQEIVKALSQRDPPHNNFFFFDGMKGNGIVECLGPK

| Compound | Percent Inhibition (Concentration 0.111 μM) | IC50 (class symbols A/B/C) [nM] | IC50 [1] [nM] | further results |
| --- | --- | --- | --- | --- |
| C[C@@H](c1cccc(Cl)c1)c1csc(C(=O)c2cncnc2N[C@@H]2C[C@H](COS(N)(=O)=O)[C@@H](O)C2)c1 (mixture of isomers) [I-117, [(1R,2S,4R)-4-{[5-({4-[(1S)-1-(3-chlorophenyl)ethyl]-2-thienyl}carbonyl)pyrimidin-4-yl]amino}-2-hydroxycyclopentyl]methyl sulfamate and [(1R,2S,4R)-4-{[5-({4-[(1R)-1-(3-chlorophenyl)ethyl]-2-thienyl}carbonyl)pyrimidin-4-yl]amino}-2-hydroxycyclopentyl]methyl sulfamate] | 93 | < 10 | – | – |
| CC(c1cccc(Cl)c1)c1csc(C(=O)c2cncnc2N[C@@H]2C[C@H](COS(N)(=O)=O)[C@@H](O)C2)c1 (single isomer, unassigned) [I-117b, [(1R,2S,4R)-4-{[5-({4-[(1S)-1-(3-chlorophenyl)ethyl]-2-thienyl}carbonyl)pyrimidin-4-yl]amino}-2-hydroxycyclopentyl]methyl sulfamate or [(1R,2S,4R)-4-{[5-({4-[(1R)-1-(3-chlorophenyl)ethyl]-2-thienyl}carbonyl)pyrimidin-4-yl]amino}-2-hydroxycyclopentyl]methyl sulfamate] | 97 | < 10 | – | – |
| N[C@H](c1cccc(Cl)c1)c1csc(C(=O)c2cncnc2N[C@@H]2C[C@H](COS(N)(=O)=O)[C@@H](O)C2)c1 (single isomer, unassigned) [I-36a, [(1R,2S,4R)-4-{[5-({4-[(R)-amino(3-chlorophenyl)methyl]-2-thienyl}carbonyl)pyrimidin-4-yl]amino}-2-hydroxycyclopentyl]methyl sulfamate or [(1R,2S,4R)-4-{[5-({4-[(S)-amino(3-chlorophenyl)methyl]-2-thienyl}carbonyl)pyrimidin-4-yl]amino}-2-hydroxycyclopentyl]methyl sulfamate] | 100 | < 10 | – | – |
| CC[C@H](C)[C@H](N)C(=O)O[C@H]1C[C@H](Nc2ncncc2C(=O)c2cc([C@@H]3OCCc4ccc(Cl)cc43)c(C)s2)C[C@@H]1COS(N)(=O)=O.Cl [I-363, [(1S,2R,4R)-4-[[5-[4-[(1R)-7-chloroisochroman-1-yl]-5-methyl-thiophene-2-carbonyl]pyrimidin-4-yl]amino]-2-(sulfamoyloxymethyl)cyclopentyl (2S,3S)-2-amino-3-methyl-pentanoate hydrochloride] | – | – | 100 to 1000 | – |
| NS(=O)(=O)OC[C@H]1C[C@@H](Nc2ncncc2C(=O)c2cc([C@@H]3SCCc4ccc(Cl)cc43)cs2)C[C@@H]1O.NS(=O)(=O)OC[C@H]1C[C@@H](Nc2ncncc2C(=O)c2cc([C@H]3SCCc4ccc(Cl)cc43)cs2)C[C@@H]1O (mixture of isomers) [I-320, [(1R,2S,4R)-4-{[5-({4-[(1R)-7-chloro-3,4-dihydro-1H-isothiochromen-1-yl]-2-thienyl}carbonyl)pyrimidin-4-yl]amino}-2-hydroxycyclopentyl]methyl sulfamate and [(1R,2S,4R)-4-{[5-({4-[(1S)-7-chloro-3,4-dihydro-1H-isothiochromen-1-yl]-2-thienyl}carbonyl)pyrimidin-4-yl]amino}-2-hydroxycyclopentyl]methyl sulfamate] | – | – | 10 to 100 | Percent Inhibition [2]: 92% |
| Cc1sc(C(=O)c2cncnc2N[C@@H]2C[C@H](COS(N)(=O)=O)[C@@H](O)C2)nc1Cc1cccc(Cl)c1 [I-353, {(1R,2S,4R)-4-[(5-{[4-(3-chlorobenzyl)-5-methyl-1,3-thiazol-2-yl]carbonyl}pyrimidin-4-yl)amino]-2-hydroxycyclopentyl}methyl sulfamate] | – | – | < 10 | inhibition at 0.111 µM [2]: 98% |
| NS(=O)(=O)OC[C@H]1C[C@@H](Nc2ncncc2C(=O)c2cc(CN3CCc4ccc(Cl)cc43)cs2)C[C@@H]1O [I-83, [(1R,2S,4R)-4-{[5-({4-[(6-chloro-2,3-dihydro-1H-indol-1-yl)methyl]-2-thienyl}carbonyl)pyrimidin-4-yl]amino}-2-hydroxycyclopentyl]methyl sulfamate] | – | < 10 | – | inhibition at 0.111 µM (Concentration 0.111 μM): 98% |
| NS(=O)(=O)OC[C@H]1C[C@@H](Nc2ncncc2C(=O)c2cc([C@@]3(c4ccccc4)CCCO3)cs2)C[C@@H]1O (single isomer, unassigned) [I-32a, [(1R,2S,4R)-2-hydroxy-4-{[5-({4-[(2S)-2-phenyltetrahydrofuran-2-yl]-2-thienyl}carbonyl)pyrimidin-4-yl]amino}cyclopentyl]methyl sulfamate or [(1R,2S,4R)-2-hydroxy-4-{[5-({4-[(2R)-2-phenyltetrahydrofuran-2-yl]-2-thienyl}carbonyl)pyrimidin-4-yl]amino}cyclopentyl]methyl sulfamate] | 98 | < 10 | – | – |
| CC(O)(c1cccc(Cl)c1)c1cc(C(=O)c2cncnc2N[C@@H]2C[C@H](COS(N)(=O)=O)[C@@H](O)C2)sc1Cl (single isomer, unassigned) [I-102a, [(1R,2S,4R)-4-{[5-({5-chloro-4-[(1R)-1-(3-chlorophenyl)-1-hydroxyethyl]-2-thienyl}carbonyl)pyrimidin-4-yl]amino}-2-hydroxycyclopentyl]methyl sulfamate or [(1R,2S,4R)-4-{[5-({5-chloro-4-[(1S)-1-(3-chlorophenyl)-1-hydroxyethyl]-2-thienyl}carbonyl)pyrimidin-4-yl]amino}-2-hydroxycyclopentyl]methyl sulfamate] | 36 | 100 to 1000 | – | – |
| Cc1sc(C(=O)c2cncnc2N[C@@H]2C[C@H](COS(N)(=O)=O)[C@@H](O)C2)cc1[C@@H]1OCCc2ccc(C(F)(F)F)nc21.Cc1sc(C(=O)c2cncnc2N[C@@H]2C[C@H](COS(N)(=O)=O)[C@@H](O)C2)cc1[C@H]1OCCc2ccc(C(F)(F)F)nc21 (mixture of isomers) [I-297, [(1R,2S,4R)-2-hydroxy-4-{[5-({5-methyl-4-[(8S)-2-(trifluoromethyl)-5,8-dihydro-6H-pyrano[3,4-b]pyridin-8-yl]-2-thienyl}carbonyl)pyrimidin-4-yl]amino}cyclopentyl]methyl sulfamate and [(1R,2S,4R)-2-hydroxy-4-{[5-({5-methyl-4-[(8R)-2-(trifluoromethyl)-5,8-dihydro-6H-pyrano[3,4-b]pyridin-8-yl]-2-thienyl}carbonyl)pyrimidin-4-yl]amino}cyclopentyl]methyl sulfamate] | – | – | < 10 | Percent Inhibition [2]: 96% |
| NS(=O)(=O)OC[C@H]1C[C@@H](Nc2ncncc2C(=O)c2cc([C@@H]3OCCc4cc(Cl)ccc43)cs2)C[C@@H]1O [I-357, [(1R,2S,4R)-4-[[5-[4-[(1R)-6-chloroisochroman-1-yl]thiophene-2-carbonyl]pyrimidin-4-yl]amino]-2-hydroxy-cyclopentyl]methyl sulfamate and [(1R,2S,4R)-4-[[5-[4-[(1S)-6-chloroisochroman-1-ylthiophene-2-carbonyl]pyrimidin-4-yl]amino}-2-hydroxy-cyclopentyl]methyl sulfamate] | – | – | < 10 | Percent Inhibition [2]: 97% |
| Cc1sc(C(=O)c2cncnc2N[C@@H]2C[C@H](COS(N)(=O)=O)[C@@H](O)C2)cc1[C@H](C)c1cccc(Cl)c1 (single isomer, unassigned) [I-135b, [(1R,2S,4R)-4-{[5-({4-[(1R)-1-(3-chlorophenyl)ethyl]-5-methyl-2-thienyl}carbonyl)pyrimidin-4-yl]amino}-2-hydroxycyclopentyl]methyl sulfamate or [(1R,2S,4R)-4-{[5-({4-[(1S)-1-(3-chlorophenyl)ethyl]-5-methyl-2-thienyl}carbonyl)pyrimidin-4-yl]amino}-2-hydroxycyclopentyl]methyl sulfamate] | 95 | < 10 | – | – |
| NS(=O)(=O)OC[C@H]1C[C@@H](Nc2ncncc2C(=O)c2cc([C@@H](O)c3ccccc3Cl)c(Cl)s2)C[C@@H]1O (mixture of isomers) [I-86, [(1R,2S,4R)-4-{[5-({5-chloro-4-[(S)-(2-chlorophenyl)(hydroxy)methyl]-2-thienyl}carbonyl)pyrimidin-4-yl]amino}-2-hydroxycyclopentyl]methyl sulfamate and [(1R,2S,4R)-4-{[5-({5-chloro-4-[(R)-(2-chlorophenyl)(hydroxy)methyl]-2-thienyl}carbonyl)pyrimidin-4-yl]amino}-2-hydroxycyclopentyl]methyl sulfamate] | 96 | < 10 | – | – |
| CC(C)[C@@H](O)c1cc(C(=O)c2cncnc2N[C@@H]2C[C@H](COS(N)(=O)=O)[C@@H](O)C2)sc1Cl (mixture of isomers) [I-195, [(1R,2S,4R)-4-{[5-({5-chloro-4-[(1R)-1-hydroxy-2-methylpropyl]-2-thienyl}carbonyl)pyrimidin-4-yl]amino}-2-hydroxycyclopentyl]methyl sulfamate and [(1R,2S,4R)-4-{[5-({5-chloro-4-[(1S)-1-hydroxy-2-methylpropyl]-2-thienyl}carbonyl)pyrimidin-4-yl]amino}-2-hydroxycyclopentyl]methyl sulfamate] | 68 | 10 to 100 | – | – |
| COc1ccc2c(c1)N(Cc1cc(C(=O)c3cncnc3N[C@@H]3C[C@H](COS(N)(=O)=O)[C@@H](O)C3)sc1C)CC2 [I-126, [(1R,2S,4R)-2-hydroxy-4-{[5-({4-[(6-methoxy-2,3-dihydro-1H-indol-1-yl)methyl]-5-methyl-2-thienyl}carbonyl)pyrimidin-4-yl]amino}cyclopentyl]methyl sulfamate] | – | < 10 | – | inhibition at 0.111 µM (Concentration 0.111 μM): 98% |
| Cc1oc(C(=O)c2cncnc2N[C@@H]2C[C@H](COS(N)(=O)=O)[C@@H](O)[C@@H]2F)cc1Cc1cccc(Cl)c1 [I-75, [(1R,2R,3R,4R)-4-({5-[4-(3-chlorobenzyl)-5-methyl-2-furoyl]pyrimidin-4-yl}amino)-3-fluoro-2-hydroxycyclopentyl]methyl sulfamate] | – | < 10 | – | inhibition at 0.111 µM (Concentration 0.111 μM): 98% |
